According to patent US6713475B2, “Tricyclic benzodiazepines as vasopressin receptor antagonists” (Ortho-McNeil Pharmaceutical, Inc., priority 1999, dated 2004):

Assays:
human V-1 receptor = target: T1, human V-1 receptor (Homo sapiens, UniProt P37288); experiment: In vitro recombinant vasopressin receptor binding assay (V1 Bdg), displacement of 3H-arginine vasopressin; conditions: for inhibition at 0.1 µM: read-out: V1 Bdg (% inh, 0.1 uM)
T1 construct: expressed in transfected cells; host or cells: HEK-293
Method: (§1) In vitro Recombinant Vasopressin Receptor Binding Assay
(§2) Compounds were assessed for their ability to displace ^3H-arginine vasopressin from the human V-1 or V-2 receptor in HEK-293 cells. Assay buffer is 50 mM Tris-Cl, 5 mM MgCl2, 0.1% BSA (pH 7.5) containing 5 ug/ml of aprotinin, leupeptin, pepstatin, 50 ug/ml bacitracin, and 1 mM Pefabloc. ^3H-vasopressin is ^3H-arginine-8-vasopressin (68.5 Ci/mmol, final concentration in assay is 0.65-0.75 nM). Into wells of 96-well round bottom polypropylene plates were added buffer, test compound, membrane (containing cloned human V-1 or V-2 receptor), and ^3H-vasopressin. The reaction plates were allowed to sit at room temperature for one hour. The samples were filtered through Unifilter GF/C plates (presoaked in 0.3 polyethyleneimine). The plates were washed 5 times with cold physiological saline containing 0.05% Tween 20. After drying, the bottom of the filter plates were sealed and 0.025 ml of Microscint-20 was added to each filter. The top of the plate was sealed, and the plate was counted. Non-specific binding was determined by the addition of 1.25 uM arginine-8-vasopressin in those wells.

V2 = V2 (Homo sapiens, UniProt P30518); experiment: In vitro recombinant vasopressin receptor binding assay (V2 Bdg), displacement of 3H-arginine vasopressin; design: expressed in transfected cells; host or cells: HEK-293; conditions: for V2 Bdg % inh: 0.1 uM, printed in parentheses in place of IC50; for IC50: membrane with cloned human V-2 receptor (HEK-293)
Method: as §1
as §2, with “Assay buffer is 50 mM Tris-Cl, 5 mM MgCl2, 0.1% BSA (pH 7.5) containing 5 ug/ml of aprotinin, leupeptin, pepstatin, 50 ug/ml bacitracin, and 1 mM Pefabloc. ^3H-vasopressin is ^3H-arginine-8-vasopressin (68.5 Ci/mmol, final concentration in assay is 0.65-0.75 nM).” left out, “counted.” for “counted. Non-specific binding was determined by the addition of 1.25 uM arginine-8-vasopressin in those wells.”

T1 sequence (P37288 whole entry): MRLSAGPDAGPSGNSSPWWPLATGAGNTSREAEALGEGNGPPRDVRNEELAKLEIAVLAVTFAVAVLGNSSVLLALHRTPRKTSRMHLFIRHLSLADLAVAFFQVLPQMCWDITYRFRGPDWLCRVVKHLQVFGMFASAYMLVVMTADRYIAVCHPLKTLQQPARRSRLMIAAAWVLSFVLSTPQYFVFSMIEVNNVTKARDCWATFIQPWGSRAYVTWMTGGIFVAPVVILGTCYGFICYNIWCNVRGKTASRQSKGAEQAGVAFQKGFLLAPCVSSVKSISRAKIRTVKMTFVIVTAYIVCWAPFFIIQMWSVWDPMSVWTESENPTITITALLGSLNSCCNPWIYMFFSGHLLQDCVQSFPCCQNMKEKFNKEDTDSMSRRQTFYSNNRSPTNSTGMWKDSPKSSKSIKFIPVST

Row | inhibition at 0.1 µM (human V-1 receptor) [%] | IC50 (V2) [nM] | Molecule | V2 Bdg % inh (V2) | V1 Bdg % inh (human V-1 receptor; 1 uM) | also measured
1 |  |  | (RS)-2-(2-Fluoro-phenyl)-N-[4-(1,3,4,12a-tetrahydro-6H-[1,4]thiazino[4,3-a][1,4]-benzodiazepin-11(12H)-yl-carbonyl)phenyl]benzamide [Compound 45] | (69%/0.1 uM) |  | V1 Bdg (% inh, 0.1 uM) (human V-1 receptor): 15%
2 |  |  | Cc1c(I)cccc1C(=O)Nc1ccc(C(=O)N2CC3CSCCN3Cc3ccccc32)c(Cl)c1 (racemic) [Compound 44, (RS)-2-Methyl-3-iodo-N-[3-chloro-4-(1,3,4,12a-tetrahydro-6H-[1,4]thiazino[4,3-a][1,4]-benzodiazepin-11(12H)-yl-carbonyl)phenyl]benzamide] | (43%/0.1 uM) |  | V1 Bdg (% inh, 0.1 uM) (human V-1 receptor): 2%
3 |  |  | COc1cc(NC(=O)c2ccccc2-c2ccc(C)cc2)ccc1C(=O)N1CC2CN(C)CCN2Cc2ccccc21 (racemic) [Compound 85, (RS)-2-(4-Methyl-phenyl)-N-[3-methoxy-4-(1,3,4,12a-tetrahydro-2-methyl-6H-[1,4]pyrazino[4,3-a][1,4]-benzodiazepin-11(12H)-yl-carbonyl)phenyl]benzamide] | (54%/0.1 uM) | (19%/1 uM) | 
4 | 36 | 9 | COc1cc(NC(=O)c2ccccc2-c2ccccc2)ccc1C(=O)N1CC2COCCN2Cc2ccccc21 (racemic) [Compound 14, (RS)-2-Phenyl-N-[3-methoxy-4-(1,3,4,12a-tetrahydro-6H-[1,4]oxazino[4,3-a][1,4]-benzodiazepin-11(12H)-yl-carbonyl)phenyl]benzamide] |  |  | 
5 |  |  | CN1CCN2Cc3ccccc3N(C(=O)c3ccc(NC(=O)c4c(Cl)cccc4Cl)cc3Cl)CC2C1 (racemic) [Compound 98, (RS)-2,6-Dichloro-N-[3-chloro-4-(1,3,4,12a-tetrahydro-2-methyl-6H-[1,4]pyrazino[4,3-a][1,4]-benzodiazepin-11(12H)-yl-carbonyl)phenyl]benzamide] | (12%/0.1 uM) | (26%/1 uM) | 
6 | 67 | 6 | O=C(Nc1ccc(C(=O)N2CC3COCCN3Cc3ccccc32)cc1O)c1ccccc1-c1ccccc1 (racemic) [Compound 22, (RS)-2-Phenyl-N-[2-hydroxy-4-(1,3,4,12a-tetrahydro-6H-[1,4]oxazino[4,3-a][1,4]-benzodiazepin-11(12H)-yl-carbonyl)phenyl]benzamide] |  |  | 
7 |  |  | Cc1ccccc1C(=O)Nc1ccc(C(=O)N2CC3CN(C)CCN3Cc3ccccc32)c(Cl)c1 (racemic) [Compound 61, (RS)-2-Methyl-N-[3-chloro-4-(1,3,4,12a-tetrahydro-2-methyl-6H-[1,4]pyrazino[4,3-a][1,4]-benzodiazepin-11(12H)-yl-carbonyl)phenyl]benzamide] | (28%/0.I uM) | (21%/1 uM) | 
8 |  |  | Cc1cc(NC(=O)c2ccccc2-c2ccccc2)ccc1C(=O)N1CC2CN(C)CCN2Cc2ccccc21 (racemic) [Compound 89, (RS)-2-Phenyl-N-[3-methyl-4-(1,3,4,12a-tetrahydro-2-methyl-6H-[1,4]pyrazino[4,3-a][1,4]-benzodiazepin-11(12H)-yl-carbonyl)phenyl]benzamide] | (56%/0.1 uM) | (51%/1 uM) | 
9 | 32 | 27 | O=C(Nc1ccc(C(=O)N2C[C@H]3COCCN3Cc3ccccc32)c(Cl)c1)c1cc(O)ccc1-c1ccccc1 [Compound 8, (S)-2-Phenyl-5-hydroxy-N-[3-chloro-4-(1,3,4,12a-tetrahydro-6H-[1,4]oxazino[4,3-a][1,4]-benzodiazepin-11(12H)-yl-carbonyl)phenyl]benzamide] |  |  | 
10 | 20 | 25 | O=C(Nc1ccc(C(=O)N2CC3COCCN3Cc3ccccc32)c(Cl)c1)c1cc(F)c(F)c(F)c1F (racemic) [Compound 16, (RS)-2,3,4,5-Tetrafluoro-N-[3-chloro-4-(1,3,4,12a-tetrahydro-6H-[1,4]oxazino[4,3-a][1,4]-benzodiazepin-11(12H)-yl-carbonyl)phenyl]benzamide] |  |  | 
11 |  |  | (RS)-2-Chloro-5-trifluoromethyl-N-[3-chloro-4-(1,3,4,12a-tetrahydro-6H-[1,4]oxazino[4,3-a][1,4]-benzodiazepin-11(12H)-yl-carbonyl)phenyl]benzamide [Compound 17] | (63%/0.1 uM) |  | V1 Bdg (% inh, 0.1 uM) (human V-1 receptor): 13%
12 |  |  | CN1CCN2Cc3ccccc3N(C(=O)c3ccc(NC(=O)c4ccccc4-c4ccccc4)cc3)CC2C1 (racemic) [Compound 69, (RS)-2-Phenyl-N-[4-(1,3,4,12a-tetrahydro-2-methyl-6H-[1,4]pyrazino[4,3-a][1,4]-benzodiazepin-11(12H)-yl-carbonyl)phenyl]benzamide] | (38%/0.1 uM) | (22%/1 uM) | 
13 | 18 | 11 | Cc1csc(-c2cc(F)ccc2C(=O)Nc2ccc(C(=O)N3CC4COCCN4Cc4ccccc43)c(Cl)c2)c1 (racemic) [Compound 9, (RS)-2-(4-Methyl-2-thienyl)-4-fluoro-N-[3-chloro-4-(1,3,4,12a-tetrahydro-6H-[1,4]oxazino[4,3-a][1,4]-benzodiazepin-11(12H)-yl-carbonyl)phenyl]benzamide] |  |  | 
14 | 76 | 18 | Cc1ccc2c(c1)CN1CCSCC1CN2C(=O)c1ccc(NC(=O)c2ccccc2-c2ccccc2)cc1 (racemic) [Compound 36, (RS)-2-Phenyl-N-[4-(8-methyl-1,3,4,12a-tetrahydro-6H-[1,4]thiazino[4,3-a][1,4]-benzodiazepin-11(12H)-yl-carbonyl)phenyl]benzamide] |  |  | 
15 |  | 20 | O=C(Nc1ccc(C(=O)N2CC3CSCCN3Cc3cc(F)ccc32)cc1)c1ccccc1-c1ccccc1 (racemic) [Compound 32, (RS)-2-Phenyl-N-[4-(8-fluoro-1,3,4,12a-tetrahydro-6H-[1,4]thiazino[4,3-a][1,4]-benzodiazepin-11(12H)-yl-carbonyl)phenyl]benzamide] |  |  | inhibition at 10 µM (human V-1 receptor; 10 uM, read-out: V1 Bdg % inh): 44%
16 |  |  | Cc1ccccc1C(=O)Nc1ccc(C(=O)N2CC3CN(C)CCN3Cc3ccccc32)cc1 (racemic) [Compound 86, (RS)-2-Methyl-N-[4-(1,3,4,12a-tetrahydro-2-methyl-6H-[1,4]pyrazino[4,3-a][1,4]-benzodiazepin-11(12H)-yl-carbonyl)phenyl]benzamide] | (1%/0.1 uM) | (33%/1 uM) | 
17 | 75 | 22 | O=C(Nc1ccc(C(=O)N2CC3CSCCN3Cc3cc(Cl)ccc32)cc1)c1ccccc1-c1ccccc1 (racemic) [Compound 37, (RS)-2-Phenyl-N-[4-(8-chloro-1,3,4,12a-tetrahydro-6H-[1,4]thiazino[4,3-a][1,4]-benzodiazepin-11(12H)-yl-carbonyl)phenyl]benzamide] |  |  | 
18 | 15 | 18 | O=C(Nc1ccc(C(=O)N2CC3COCCN3Cc3ccccc32)c(Cl)c1)c1cccc(Cl)c1F (racemic) [Compound 18, (RS)-2-Fluoro-3-chloro-N-[3-chloro-4-(1,3,4,12a-tetrahydro-6H-[1,4]oxazino[4,3-a][1,4]-benzodiazepin-11(12H)-yl-carbonyl)phenyl]benzamide] |  |  | 
19 | 8 | 47 | CN(C)c1cc(NC(=O)c2ccccc2-c2ccccc2)ccc1C(=O)N1C[C@H]2CSCCN2Cc2ccccc21 [Compound 46, (S)-2-Phenyl-N-[3-dimethylamino-4-(1,3,4,12a-tetrahydro-6H-[1,4]thiazino[4,3-a][1,4]-benzodiazepin-11(12H)-yl-carbonyl)phenyl]benzamide] |  |  | 
20 |  |  | COc1cc(NC(=O)c2ccccc2-c2ccccc2)ccc1C(=O)N1CC2CN(C)CCN2Cc2ccccc21 (racemic) [Compound 84, (RS)-2-Phenyl-N-[3-methoxy-4-(1,3,4,12a-tetrahydro-2-methyl-6H-[1,4]pyrazino[4,3-a][1,4]-benzodiazepin-11(12H)-yl-carbonyl)phenyl]benzamide] | (36%/0.1 uM) | (10%/1 uM) | 
21 |  |  | (RS)-2-Phenyl-N-[4-(8,9-dimethoxy-1,3,4,12a-tetrahydro-6H-[1,4]thiazino[4,3-a][1,4]-benzodiazepin-11(12H)-yl-carbonyl)phenyl]benzamide [Compound 33] | (19%/0.1 uM) |  | V1 Bdg % inh (human V-1 receptor; 10 uM): 6%/10 uM
22 |  |  | (RS)-2-Phenyl-N-[4-(9-chloro-1,3,4,12a-tetrahydro-6H-[1,4]thiazino[4,3-a][1,4]-benzodiazepin-11(12H)-yl-carbonyl)phenyl]benzamide [Compound 34] | (41%/0.1 uM) |  | V1 Bdg % inh (human V-1 receptor; 10 uM): 1%/10 uM
